Patent US8871815B2, “Therapeutic compounds” (Signature Therapeutics, Inc., priority 2007, dated 2014)
Where two headings read alike, the source gives them in different places. Marks after values point to notes of the source that are not given here.

Key:
male Sprague-Dawley rats [1] = test: Anesthetic effects in rats, bolus IV, Loss of Righting Reflex (LORR); assay type: in vivo, rat; settings: 49 mg/kg bolus IV
Beagle dogs [2] = test: Hemodynamic effects (blood pressure) in beagle dogs, bolus IV; assay type: in vivo, dog; settings: 4 min after administration
Experimental: The study was a crossover design. […] The MTD was defined as the dose that reduced mean arterial blood pressure (MAP) by 50% or to less than 50 millimeters of mercury (mmHg or mm Hg). All animals received supplemental oxygen and, if needed, ventilatory support after 4 min of apnea.
Hemodynamic data, such as mean arterial pressure (MAP), were recorded at baseline, 1, 2, 4, 8, 15, 20 and 30 min. Compound 1 was administered at 5, 10, 15 and 30 mg/kg to 3, 6, 6 and 3 dogs respectively. […] Data were analyzed with a 2-way ANOVA followed by t-test with Bonferroni correction for multiple comparisons.

rats = test: Separate rat study, bolus IV, 1% in cremaphor, sleep time; assay type: in vivo; settings: for Sleep Time (duration of anesthesia): 7 mg/kg bolus IV
Beagle dogs [3] = system: Beagle dogs
[4] = Anesthetic effects in rats, bolus IV, Loss of Righting Reflex (LORR); assay type: in vivo, rat; settings: male, Sprague-Dawley, rat, in vivo; bolus IV, rats; read-out: MTD (maximum tolerated dose)
Experimental: (§1) Also measured was minimum dose to achieve LORR and maximum tolerated dose (MTD).
(§2) The ranges of doses studied were 1.9, 2.3, 3.0, 7.0, 13.7, 14.0 and 15.2 mg/kg for Compound 1 and 3.5, 4.0, 7.0 and 14.0 mg/kg for […].

male Sprague-Dawley rats [5] = test: as above; assay type: in vivo, rat
Experimental: as §1, §2

ferrets = test: Anti-emetic activity in ferrets (morphine sulfate induced emesis); settings: 6 ferrets
Experimental: Male descented ferrets weighing 1.0-1.5 kg with vascular access ports in the jugular vein were housed on a 12/12-hour light/dark cycle under controlled temperature, with food and water provided ad libitum. On each study day, food was presented to ferrets one hour prior to dosing. Immediately prior to dosing, food and water were removed. A 1% Compound 1 formulation, prepared as described in Example 5 and formulated in accordance with Example 4, or […] was administered by IV infusion to the ferrets; see Wynn R L et al, 1993, Eur J Pharmacol 241, 42 re […] administration in ferrets. After administration of Compound 1 or […], animals were placed in clean, transparent cages (with lids) and left unrestrained for a 45-min observation period by an observer blinded to the specific treatment administered.
Episodes of retching and/or vomiting were considered separate episodes when the interval between retches and/or vomits exceeded 5 sec.
After termination of the infusion, 0.5 mg/kg morphine sulfate was administered subcutaneously and the ferrets were monitored for 45 min as described above. Six additional ferrets were administered subcutaneously 0.5 mg/kg morphine sulfate only.

pigs [6] = test: Hemodynamic effects, arterial blood gas and serum chemistry in pigs, IV infusion; assay type: in vivo, pig; settings: IV infusion, pigs (Compound 1 0.384, propofol 0.750 mg/kg/min)
Experimental: Anesthesia was induced with isoflurane. Intravascular access was obtained from an ear vein. Each pig was intubated and mechanically ventilated.
ECG was monitored throughout the study. […] Body temperature was maintained at 37° C.
Arterial blood gas samples from pigs infused with Compound 1 were taken and analyzed for blood gas and serum chemistry values; mean values are reported in Table 4.

[7] = Aqueous phase concentration in lipid emulsion (ultrafiltration, LC/MS/MS); assay type: physicochemical; settings: 1% lipid emulsion formulation
Experimental: The concentration of Compound 1 in the aqueous phase (aqueous phase concentration) of a lipid emulsion formulation was determined.
A one percent (1%) Compound 1 formulation was formulated in accordance with Example 4, Compound 1 being prepared as described in Example 5.

in vivo = settings: both, pig, in vivo, iv
Experimental: (§3) Experiments were performed on commercial farm-bred swine of either sex (mean weight 33.6 kg). Anesthesia was induced with isoflurane. Intravascular access was obtained from an ear vein. Each pig was intubated and mechanically ventilated. Tissue oxygenation was monitored using continuous pulse oximetry placed on the tongue. Ventilation was monitored using an inspired/expired gas analyzer that measured oxygen, carbon dioxide, and potent inhalation agent concentrations. Ventilator settings were adjusted as needed to maintain steady state.
(§4) ECG was monitored throughout the study. Arterial blood pressure was monitored through the cannulated left femoral artery. MAP, systolic and diastolic arterial pressures and heart rate were collected every 5 seconds. An internal jugular vein was cannulated with a pulmonary artery catheter for thermodilution estimates of cardiac output and blood temperature. Body temperature was maintained at 37° C. Instrumentation for EEG monitoring was accomplished using an adhesive electrode array over the fronto-occipital regions (Aspect Medical. Norwood, Mass., USA).
(§5) Metabolic and hemodynamic parameters for each group were compared at multiple time points using an unpaired two-tailed Student t test. To account for multiple comparisons and maintain the probability of a type I error below 0.05, P values less than 0.025 were considered significant.

pigs [8] = test: in vivo; settings: pig, in vivo, iv
Experimental: as §3, §4, §5

[9] = biological target: T1, phosphodiesterase 2 (PDE2) (Homo sapiens, UniProt O00408); test: Cerep Diversity Profile: enzymes, PDE2; assay type: biochemical; settings: tested at 10 μM; read-out: inhibition of control binding, PDE2
T1 construct: Cerep, Inc

[10] = system: alpha2, NMDA, PCP, benzodiazepine or opioid receptors; test: Cerep Diversity Profile: other receptors; assay type: binding; settings: tested at 10 μM
mongrel dogs = test: Anesthetic and hemodynamic effects in chronically instrumented mongrel dogs, total intravenous anesthesia; assay type: in vivo, dog; settings: IV bolus then stepwise IV infusions 0.25-2.0 mg/kg/min
Experimental: Assessments included hemodynamic performance parameters such as blood pressure, heart rate, and cardiac output as well as clinical chemistry parameters and EEG analysis.
General anesthesia was induced in the dogs by IV administration of 7 mg/kg […], and the dogs were tracheally intubated and mechanically ventilated. General anesthesia was maintained using 2.2% end-tidal sevoflurane in oxygen. A thoracotomy was performed at the fifth left intercostal space, and heparin-filled catheters were placed in the proximal descending thoracic aorta (P50 pressure transducer Gould, Oxnard, Calif.), and in the right and left atria to provide IV access. An ultrasonic transit-time flow probe (T108, Transonic Systems, Ithaca, N.Y.) was placed around the ascending thoracic aorta. A […] Doppler flow probe (Model HDP-20-3.5, Triton Surgical Technologies, San Diego, Calif.) was placed around the left anterior descending coronary artery. Six MHz sonomicrometer crystals (Hartley, Houston, Tex.) were implanted in the subendocardium. A high fidelity micromanometer (P7, Konigsberg Instruments, Pasadena, Calif.) was inserted into the left ventricle. […]
The dogs were fasted overnight. […] EEG was recorded continuously during the experiment. Arterial blood gas and chemistry measures included pH, pO2, sO2, pCO2, tCO2, carbonate, potassium, sodium, and base excess, and were measured immediately following blood draws using a blood gas and chemistry analyzer (ABL-505, Radiometer, Copenhagen). […] Following stabilization, baseline measurements of EEG, hemodynamics, ECG, and blood gases were recorded. Blood samples were drawn for PK and clinical chemistry, and pressure volume loops were generated and data recorded.
Following induction, the dogs were tracheally intubated, and mechanically ventilated using 50% oxygen in nitrogen throughout the subsequent drug infusion and recovery periods. […] MAP was monitored continuously, and dosing was discontinued immediately if MAP decreased below 50 mmHg at any time or if the heart rate increased over 200 beats per minute. […]

[11] = morphine sulfate 0.5 mg/kg subcutaneously alone, 45 min observation
[12] = 15 min IV infusion at 1 mg/kg/min, then 0.5 mg/kg morphine sulfate sc, 45 min

T1 sequence (O00408 whole entry): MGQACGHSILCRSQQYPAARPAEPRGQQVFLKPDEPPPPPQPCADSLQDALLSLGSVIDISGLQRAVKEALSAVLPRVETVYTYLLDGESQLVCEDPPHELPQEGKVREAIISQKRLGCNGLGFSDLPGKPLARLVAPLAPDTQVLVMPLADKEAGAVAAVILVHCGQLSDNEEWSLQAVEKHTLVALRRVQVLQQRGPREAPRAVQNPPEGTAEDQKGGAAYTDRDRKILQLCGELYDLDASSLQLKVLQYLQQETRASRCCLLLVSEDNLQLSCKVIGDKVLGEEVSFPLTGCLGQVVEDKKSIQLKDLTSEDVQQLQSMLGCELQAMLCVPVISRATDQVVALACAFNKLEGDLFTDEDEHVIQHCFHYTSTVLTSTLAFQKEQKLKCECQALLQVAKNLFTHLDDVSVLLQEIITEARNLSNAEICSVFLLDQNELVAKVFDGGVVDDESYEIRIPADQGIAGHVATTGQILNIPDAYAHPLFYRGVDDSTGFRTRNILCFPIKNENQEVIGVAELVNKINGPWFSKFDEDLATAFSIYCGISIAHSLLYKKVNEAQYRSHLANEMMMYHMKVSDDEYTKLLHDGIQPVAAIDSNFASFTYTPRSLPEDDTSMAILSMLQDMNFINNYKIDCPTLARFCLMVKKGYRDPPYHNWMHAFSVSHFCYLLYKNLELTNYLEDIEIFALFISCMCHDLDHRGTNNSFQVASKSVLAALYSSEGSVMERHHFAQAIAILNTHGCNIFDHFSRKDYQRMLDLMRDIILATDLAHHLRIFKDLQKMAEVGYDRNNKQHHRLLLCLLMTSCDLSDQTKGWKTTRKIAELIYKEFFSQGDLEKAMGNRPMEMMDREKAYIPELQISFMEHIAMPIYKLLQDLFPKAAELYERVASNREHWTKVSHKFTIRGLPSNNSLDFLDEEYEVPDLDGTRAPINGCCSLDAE

Compound | MAP % change from baseline (Beagle dogs [2]; 10 mg/kg bolus IV) | MAP % change from baseline (Beagle dogs [2]; 15 mg/kg bolus IV) | MAP % change from baseline (Beagle dogs [2]; 30 mg/kg bolus IV) | Sleep Time (duration of anesthesia) (rats; rats) | duration of anesthesia (sleep time) (Beagle dogs [3]; 5 mg/kg bolus IV, dogs) | duration of anesthesia (sleep time) (Beagle dogs [3]; 10 mg/kg bolus IV, dogs) | duration of anesthesia (sleep time) (Beagle dogs [3]; 15 mg/kg bolus IV, dogs) | duration of anesthesia (sleep time) (Beagle dogs [3]; 30 mg/kg bolus IV, dogs) | HD50 (dose required to cause 50% of the rats to lose righting reflex) (male Sprague-Dawley rats [5]; bolus IV, rats) | HD7min (dose required to produce 7 minutes of anesthesia) (male Sprague-Dawley rats [5]; bolus IV, rats) | other results
CC[C@H](C)c1cccc([C@@H](C)CC)c1O (single isomer, unassigned) [(S,S)] | +7% | +5% | 0% | 6.3 min | 8 min | 24 min | 50 min | 50 min | 4 mg/kg | 5.2 mg/kg | deaths (male Sprague-Dawley rats [1]): One of six rats died; MTD [4]: 42 mg/kg; TI (therapeutic index, ratio of MTD to HD7 min) (male Sprague-Dawley rats [5]; bolus IV, rats): 8.1
CC[C@@H](C)c1cccc([C@@H](C)CC)c1O [(meso), (meso)-2,6-di-sec-butylphenol] | +5% | +15% | −16% | 12.7 min | 25 min | 36 min | 55 min | 58 min | – | – | deaths (rats; 21 mg/kg, rats): One of 6 rats; duration of anesthesia (rats; 21 mg/kg, remaining 5 rats): 34 min; quality of anesthesia (smoothness of induction, muscle tone, involuntary motion) (Beagle dogs [3]; bolus IV, dogs): inferior
CN1CC[C@]23c4c5ccc(O)c4O[C@H]2[C@@H](O)C=C[C@H]3[C@H]1C5.O=S(=O)(O)O [Morphine sulfate] | – | – | – | – | – | – | – | – | – | – | episodes of vomiting (ferrets; [11]): 15; retches (ferrets; [11]): 157
CC(C)c1cccc(C(C)C)c1O [Propofol, 2,6-diisopropylphenol, reference compound] | −22% | −32% | −66%* | 7.1 min | – | – | – | – | 3.8 mg/kg | 7.0 mg/kg | lowest HR measured (pigs [6]): 88±6 bpm; aqueous phase concentration [7]: 6.28 ± 0.41 µg/mL; AUC (in vivo): 1810 ng·h/mL; IV infusion time producing maximal suppression of BIS (pigs [8]): 9.4 ± 1.9 min; retches (ferrets; [12]): 47; vomits (ferrets; [12]): 3; inhibition at 10 µM [9]: > 20%; dogs reaching the MTD (MAP reduced by 50% or to less than 50 mmHg) (Beagle dogs [3]; dog, in vivo, iv): Two of 3 dogs; effects at alpha2, NMDA, PCP, benzodiazepine or opioid receptors [10]: No significant effects; LORR produced (male Sprague-Dawley rats [5]; 3.5 mg/kg bolus IV, 6 rats): no LORR in 4 of 6 rats; Cardiac output versus baseline (mongrel dogs): significantly reduced from baseline
